Measured values reported in patent US12410229B2, “PTH mimetic peptide based on protein domain reconstruction and application thereof” (priority 2018, dated 2025).

Legend:
[1] = clinical applications, in general; cited from earlier work
[2] = tested on: Primary mouse skull osteoblasts; assay: Realtime PCR gene expression after PTH peptide stimulation, osteoblasts; format: cell-based; settings: intermittent stimulation
Protocol: (§1) Primary mouse skull osteoblasts (FIGS. 3A and 3B) and mouse bone marrow cells (FIGS. 3C and 3D) were cultured in cell culture plates. When the cells completely cover the bottom of the culture well, changed to a medium containing 1% fetal bovine serum, added with different concentrations of PTH mimetic peptide (the concentration is the same as above). Cells receiving intermittent stimulation (FIG. 3A and FIG. 3C) were treated with PTH peptides for 4 hours, and normal medium for 44 hours. Such 48-hour cycle repeated three times.
(§2) Cell RNA was extracted 4 hours after the last PTH peptide stimulation for Realtime PCR detection. Cells receiving continuous stimulation (FIG. 3B and FIG. 3D) were cultured in the medium with PTH peptides, and the culture medium containing peptides was changed 48 hours later. Repeated such cycle three times. After 48 hours of the last PTH peptide stimulation, cellular RNA was extracted for Realtime PCR detection. As shown in the figure, the average value and standard deviation of an independent experiment (triple holes) were obtained. The same experiment was repeated three times and same results were obtained. *P<0.05 vs control group (CON), #P<0.05 vs PTH (1-34).

[3] = tested on: Bone marrow cells from the bone marrow cavity of femur in 7-week-old mice; assay: Continuous PTH mimetic peptide stimulation, osteoclast formation (TRAP); format: cell-based, mouse
Protocol: Bone marrow cells from the bone marrow cavity of femur in 7-week-old mice were extracted and seeded in 24-well plates at a density of 1×10^5/well. The 48 h continuous PTH mimetic peptide stimulation experiment was carried out as described above. After 7 days, tartrate resistant acid phosphatase (TRAP) staining (bottom row of holes in FIG. 2A) and quantification were performed (FIG. 2D).
(§3) Primary osteoblasts (two rows of the holes in A) of mouse skulls were continuously treated with PTH (1-34), MY-3 and MY-1 (within the 48-hour culture cycles, PTH peptide stayed in the culture medium at all times). After 2 weeks, alkaline phosphatase (ALP) staining (A) and quantification (B) wells were performed in the cell culture. After 4 Weeks, calcium nodule staining (A) and calcium ion quantification (C) were performed in culture wells. Bone marrow cells in the femoral shaft bone marrow cavity (lower hole A) received the same treatment with three peptides as described above. Two weeks later, tartrate resistant acid phosphatase (TRAP) staining (A) and quantification (D) were performed. […] The same experiment was repeated three times and same results were obtained. […], #P<0.05 vs PTH (1-34).

[4] = tested on: mouse bone marrow cells; assay: Realtime PCR gene expression after PTH peptide stimulation, bone marrow cells; format: cell-based; settings: continuous stimulation of bone marrow cells (FIG. 3D)
Protocol: as §1, §2

[5] = tested on: Primary osteoblasts of mouse skulls; assay: Continuous PTH mimetic peptide stimulation, osteoblast differentiation (ALP, calcium nodules); format: cell-based
Protocol: Osteoblasts were isolated from the skulls of newborn mice and cultured in vitro. The cell at density of 1×10^5/well was inoculated in the 24-well culture plate. After 3 days, the continuous PTH mimetic peptide stimulation experiment was started. The PTH mimetic peptide was added to the culture system (containing 10% serum+α-MEM medium) at the corresponding concentration. After 48 hours, when the medium is changed, the PTH mimetic peptide was added again, meaning the PTH mimetic peptide is always in the culture solution. Concentration: MY-1 peptide 10^−6 M, PTH (1-34) peptide 10^−8 M, MY-3 peptide 10^−8 M. Alkaline phosphatase staining was performed 2 weeks later, and calcium nodule staining was performed 4 weeks later (FIG. 2A, upper two rows of the holes). The expression of alkaline phosphatase and the concentration of calcium ion in each well were quantitatively detected (FIGS. 2B and 2C).
as §3

[6] = tested on: C57BL female mice; assay: Ovariectomy osteoporosis model, tibia histology (paraffin section); format: in vivo, mouse; settings: OVX mice, 2 and 4 weeks, compared with the control group; MY-1 400, PTH (1-34) and MY-3 40 μg/kg/day
Protocol: An osteoporosis model was constructed by removing the ovaries of 7-week-old C57BL female mice. Mice were subcutaneously injected with PTH (3-34) (400 μg/kg/day), MY-1 peptide (400 μg/kg/day), PTH (1-34) (40 μg/kg/day) and MY-3 peptide (40 μg/kg/day) daily (5 days a week), respectively. Mice were sacrificed at 2 and 4 weeks and their tibias were separated, then the cancellous bone mass (BV/TV) and bone mineral density (BMD) of the tibias were measured by micro-CT (FIG. 4).
MY-3 has a stronger anti-bone loss effect than PTH (1-34)-through histological studies. The preparation of the osteoporosis animal model and the administration method of the PTH mimetic peptide was the same as in Example 4. After 2 and 4 weeks, the tibias of experimental mice were removed, decalcified, and prepared for paraffin section. At last, the osteoclast was stained.

[7] = tested on: Bone marrow cells from the bone marrow cavity of 7-week-old mice; assay: Intermittent (4 h/48 h) PTH mimetic peptide stimulation, osteoclast formation (TRAP); format: cell-based, mouse
Protocol: Bone marrow cells from the bone marrow cavity of 7-week-old mice were extracted and cultured in 24-well plates at a density of 1×10^5/well. The 4 h/48 h intermittent PTH mimetic peptide stimulation experiment was carried out as described above. After 7 days, tartrate resistant acid phosphatase (TRAP) staining (bottom row of the holes in FIG. 1A) and quantification were performed (FIG. 1D).
(§4) Primary osteoblasts (two rows of the holes in A) of mouse skulls were intermittently treated with PTH (1-34), MY-3 and MY-1. (within 48 hours, PTH peptide was added to the medium for 4 hours, removed, and cultured in the ordinary medium for 44 hours, then started all over again). At 2 weeks, alkaline phosphatase (ALP) staining (A) and quantification (B) wells were performed in the cell culture. 4 Weekly, calcium nodule staining (A) and calcium ion quantification (C) were performed in culture wells. Bone marrow cells in the femoral shaft bone marrow cavity (lower hole A) received the same treatment with three peptides mentioned above. Two weeks later, tartrate resistant acid phosphatase (TRAP) staining (A) and quantification (D) were performed. […] The same experiment was repeated three times, and same results were obtained. *P<0.05 vs control group (CON), #P<0.05 vs PTH (1-34).

[8] = tested on: Primary osteoblasts of mouse skulls; assay: Intermittent (4 h/48 h) PTH mimetic peptide stimulation, osteoblast differentiation (ALP, calcium nodules); format: cell-based
Protocol: Osteoblasts were isolated from the skulls of newborn mice and cultured in vitro. The cell at density of 1×10^5/well was inoculated in a 24-well culture plate. After 3 days, a 4 h/48 h intermittent PTH mimetic peptide stimulation experiment was started, which the PTH mimetic peptide was added to the culture system at the corresponding concentration (containing 10% serum+α-MEM Culture medium). After 4 hours, the culture solution was aspirated, the adherent cells were gently washed once with α-MEM medium, then 10% serum+α-MEM medium was added and continued culturing for 44 hours. Repeated this cycle. Concentration: MY-1 peptide 10^−6 M, PTH (1-34) peptide 10^−8 M, MY-3 peptide 10^−8 M.
Alkaline phosphatase staining was performed after 2 weeks, and calcium nodule staining was performed after 4 weeks (FIG. 1A, upper two rows of the holes). Alkaline phosphatase expression and calcium ion concentration of each well were quantitative detected (FIGS. 1B and 1C).
as §4

Which “reduction of the incidence of vertebral fractures” value [1] does the source give for `CC[C@H](C)[C@H](NC(=O)[C@H](CCC(=O)O)NC(=O)[C@H](CO)NC(=O)[C@@H](NC(=O)[C@@H](N)CO)C(C)C)C(=O)N[C@@H](CCC(N)=O)C(=O)N[C@@H](CC(C)C)C(=O)N[C@@H](CCSC)C(=O)N[C@@H](Cc1cnc[nH]1)C(=O)N[C@@H](CC(N)=O)C(=O)N[C@@H](CC(C)C)C(=O)NCC(=O)N[C@@H](CCCCN)C(=O)N[C@@H](Cc1cnc[nH]1)C(=O)N[C@@H](CC(C)C)C(=O)N[C@@H](CC(N)=O)C(=O)N[C@@H](CO)C(=O)N[C@@H](CCSC)C(=O)N[C@@H](CCC(=O)O)C(=O)N[C@@H](CCCN=C(N)N)C(=O)N[C@H](C(=O)N[C@@H](CCC(=O)O)C(=O)N[C@@H](Cc1c[nH]c2ccccc12)C(=O)N[C@@H](CC(C)C)C(=O)N[C@@H](CCCN=C(N)N)C(=O)N[C@@H](CCCCN)C(=O)N[C@@H](CCCCN)C(=O)N[C@@H](CC(C)C)C(=O)N[C@@H](CCC(N)=O)C(=O)N[C@@H](CC(=O)O)C(=O)N[C@H](C(=O)N[C@@H](Cc1cnc[nH]1)C(=O)N[C@@H](CC(N)=O)C(=O)N[C@@H](Cc1ccccc1)C(=O)O)C(C)C)C(C)C` [PTH (1-34), Teriparatide, reference compound] here?
Its value is “about 76%”.

What about the “expression of osteogenic marker gene ALP and OC (in words)” value [2] of the same molecule?
Its value is “promote the expression of osteogenic marker gene ALP and OC”.

And the “osteoclast formation (in words)” value ([3]; TRAP staining)?
The value was “the same effect on promoting osteoclast formation”.

What about the TRAP ([3]; after 7 days, MY-1 10^−6 M, PTH (1-34) 10^−8 M, MY-3 10^−8 M, mean ± SD) of the same molecule?
Its TRAP is 11.80 ± 1.99 U/g protein.

And the “RANKL expression (in words)” value [4]?
The value was “significantly promoted RANKL expression”.

What about the “expression of ALP and OC (in words)” value [4] of the same molecule?
The value was “inhibited the expression of ALP and OC”.

What about the “osteogenic differentiation of osteoblasts (in words)” value [5] of the same molecule?
The value was “inhibit the differentiation of osteoblasts”.

What about the ALP ([5]; 2 weeks, MY-1 10^−6 M, PTH (1-34) 10^−8 M, MY-3 10^−8 M, mean ± SD) of the same molecule?
The ALP was 1.02 ± 0.28 U/g protein.

And the Calcium ([5]; 4 weeks, MY-1 10^−6 M, PTH (1-34) 10^−8 M, MY-3 10^−8 M, mean ± SD)?
The Calcium was 0.12 ± 0.03 mmole/g protein.

What about the “number of trabecular bones (in words)” value [6] of the same molecule?
The value was “increased”.

What about the TRAP ([7]; intermittent 4 h/48 h stimulation, after 7 days, MY-1 10^−6 M, PTH (1-34) 10^−8 M, MY-3 10^−8 M, mean ± SD) of the same molecule?
Its TRAP is 9.61 ± 1.78 U/g protein.

And the “osteoclast formation (in words)” value ([7]; intermittent stimulation, TRAP staining)?
The value was “the same effect of promoting osteoclast formation”.

What about the ALP ([8]; intermittent 4 h/48 h stimulation, 2 weeks, MY-1 10^−6 M, PTH (1-34) 10^−8 M, MY-3 10^−8 M, mean ± SD) of the same molecule?
The ALP was 4.91 ± 0.55 U/g protein.

What about the Calcium ([8]; intermittent 4 h/48 h stimulation, 4 weeks, MY-1 10^−6 M, PTH (1-34) 10^−8 M, MY-3 10^−8 M, mean ± SD) of the same molecule?
The Calcium was 0.49 ± .06 mmole/g protein.

And the “osteogenic differentiation of osteoblasts (in words)” value ([8]; intermittent stimulation)?
Its value is “can promote osteogenic differentiation of osteoblasts”.
